Key:
[1] = molecular target: Coagulation factor X (Homo sapiens, UniProt P00742); assay: In vitro binding affinity for human Coagulation factor X
[2] = molecular target: Prothrombin (Homo sapiens, UniProt P00734); assay: Binding affinity towards thrombin
[3] = molecular target: Serine protease 1 (Homo sapiens, UniProt P07477); assay: Binding affinity towards trypsin
Chain of Serine protease 1 (P07477 whole entry): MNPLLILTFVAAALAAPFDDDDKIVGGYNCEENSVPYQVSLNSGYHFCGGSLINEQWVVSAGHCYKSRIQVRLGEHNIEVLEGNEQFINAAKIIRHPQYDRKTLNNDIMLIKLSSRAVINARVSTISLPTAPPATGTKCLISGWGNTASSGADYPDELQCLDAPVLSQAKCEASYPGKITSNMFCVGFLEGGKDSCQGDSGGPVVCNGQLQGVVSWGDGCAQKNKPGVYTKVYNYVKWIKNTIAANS

Chain of Coagulation factor X (P00742 41-179 limits assumed): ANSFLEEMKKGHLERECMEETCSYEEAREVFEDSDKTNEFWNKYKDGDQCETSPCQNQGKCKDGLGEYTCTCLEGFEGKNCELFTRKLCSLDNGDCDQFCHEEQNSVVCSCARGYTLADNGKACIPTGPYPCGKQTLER
Chain of Coagulation factor X (P00742 235-488 limits assumed): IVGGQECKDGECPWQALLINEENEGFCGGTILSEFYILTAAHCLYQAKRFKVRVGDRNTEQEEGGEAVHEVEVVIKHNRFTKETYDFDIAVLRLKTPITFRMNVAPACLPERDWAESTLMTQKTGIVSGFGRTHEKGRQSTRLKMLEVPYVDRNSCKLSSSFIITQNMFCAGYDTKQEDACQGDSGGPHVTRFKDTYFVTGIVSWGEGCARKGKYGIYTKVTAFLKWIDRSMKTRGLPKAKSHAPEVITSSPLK

Compound | Ki [1] | Ki [2] | Ki [3]
O=C1CN(S(=O)(=O)c2cc3cccnc3s2)CCN1Cc1cc2cnccc2[nH]1 [1-(1H-Pyrrolo[3,2-c]pyridin-2-ylmethyl)-4-(thieno[2,3-b]pyridine-2-sulfonyl)-piperazin-2-one] | > 1.2 µM |  | 
O=C1CN(S(=O)(=O)c2cc3ncccc3s2)CCN1Cc1cc2cnccc2[nH]1 [1-(1H-Pyrrolo[3,2-c]pyridin-2-ylmethyl)-4-(thieno[3,2-b]pyridine-2-sulfonyl)-piperazin-2-one] | > 1.2 µM |  | 
O=C1CN(S(=O)(=O)c2cc3ccc(Cl)cc3s2)CCN1Cc1cc2c(=O)[nH]ccc2[nH]1 [2-[4-(6-Chloro-benzo[b]thiophene-2-sulfonyl)-2-oxo-piperazin-1-ylmethyl]-1,5-dihydro-pyrrolo[3,2-c]pyridin-4-one] | > 1.2 µM | > 3.9 µM | > 2.9 µM
O=C1CN(S(=O)(=O)c2sc3ccccc3c2Cl)CCN1Cc1cc2cnccc2[nH]1 [4-(3-Chloro-benzo[b]thiophene-2-sulfonyl)-1-(1H-pyrrolo[3,2-c]pyridin-2-ylmethyl)-piperazin-2-one] | > 1.2 µM |  | 
O=C1CN(S(=O)(=O)c2ccc(-c3ccc(Cl)cc3)cc2)CCN1Cc1cc2cnccc2[nH]1 [4-(4'-Chloro-biphenyl-4-sulfonyl)-1-(1H-pyrrolo[3,2-c]pyridin-2-ylmethyl)-piperazin-2-one] | > 1.2 µM |  | 
O=C1CN(S(=O)(=O)c2cc3ccc(Cl)cc3s2)CCN1Cc1nc2ccncc2[nH]1 [4-(6-Chloro-benzo[b]thiophene-2-sulfonyl)-1-(1H-imidazo[4,5-c]pyridin-2-ylmethyl)-piperazin-2-one] | > 1.2 µM | > 3.9 µM | > 2.9 µM
O=C1CN(S(=O)(=O)c2cc3ccc(Cl)cc3s2)CCN1Cc1cc2ncccc2[nH]1 [4-(6-Chloro-benzo[b]thiophene-2-sulfonyl)-1-(1H-pyrrolo[3,2-b]pyridin-2-ylmethyl)-piperazin-2-one] | > 1.2 µM | > 3.9 µM | > 2.9 µM
COc1cc(C=CS(=O)(=O)N2CCN(Cc3cc4cnccc4[nH]3)C(=O)C2)sc1Cl [4-[2-(5-Chloro-4-methoxy-thiophen-2-yl)-ethenesulfonyl]-1-(1H-pyrrolo[3,2-c]pyridin-2-ylmethyl)-piperazin-2-one] | > 1.2 µM |  | 
